Test results as given in patent publication US9801880B2, “Use of kinase inhibitors” (BerGenBio AS, priority 2013, dated 2017).
“And” between values parts separate entries of the source, which are not always exact repeats. Equal entries are not always repeated.

Assays:
[1] = test system: Ba/F3 cells (WT, FLT3 WT, FLT3 ITD, FLT3 D835Y); assay: WST-1 and 3H-Thymidine incorporation cell proliferation assays, all Ba/F3 lines; assay type: cell-based, Murine; conditions: by 3 μM; regardless of cell line
Excerpt: Murine pro-B lymphocyte line Ba/F3 wild type (Ba/F3 WT), and Ba/F3 lines stably transduced with expression vectors that encoded wild-type human FLT3 (Ba/F3 FLT3 WT cells) or human FLT3 containing an ITD mutation (Ba/F3-ITD cells) or D835Y (Ba/F3 D835Y cells) point mutations, which lead to constitutively functional activation of the protein, were obtained from Bjørn Tore Gjertsen (Department of Clinical Science, Hematology Section, University of Bergen, Bergen, Norway). […]
Proliferation of cells was assessed using the tetrazolium salt WST-1 that is cleaved to chromogenic formazan dye by mitochondrial dehydrogenases in viable cells. […] The absorbance of the samples was measured by Spectramax Plus 384 Spectrophotometer (Molecular Devices Corp., Sunnyvale, Calif., USA) and the percentage of proliferation was calculated by using the following formula: (Arbitrary units (AU) of treated sample−AU of background control)/(AU of untreated sample−AU of background control).
Following 18 hours incubation, the DNA was harvested and radioactivity was assessed by liquid scintillation counting (Packard Microplate Scintillation and Luminescence counter, Perkin Elmer Life and Analytical Science, Inc., Waltham, USA).

[2] = test system: Flt3 mutations D835H, D835Y, K663Q, and A829P; assay: Inhibition of Flt3 mutations (biochemical assays, format not stated)
Excerpt: (§1) A summary is provided below.

c-Kit = c-Kit (Homo sapiens, UniProt P10721); assay: KinaseProfiler kinase activity assay; assay type: biochemical; set-up: purchased EMD Millipore Corp. (KinaseProfiler service)
Procedure: KinaseProfiler™ assays (EMD Millipore Corp. Billerica, Mass., USA) are radioligand binding assays with purified or partially-purified human kinases. Most of the KinaseProfiler™ assays are conducted in 20 mM MOPS, 1 mM EDTA, 0.01% Brij-35, 5% Glycerol, 0.1% b-mercaptoethanol, 1 mg/mL BSA. The assay involves the transfer of ^32P from γ-^32P-ATP to the target peptide, followed by washing and trapping of the labeled peptide on a filter. The concentration of γ-^32P-ATP used was at the established Km for ATP.

[3] = test system: Ba/F3 cells expressing the non-mutated Bcr-Abl1 kinase; assay: WST-1 cell viability, Ba/F3 cells expressing Bcr-Abl1; assay type: cell-based; conditions: Mus musculus, BaF3, 48 hours, serum free
Procedure: Ba/F3 cells either stably overexpressing Bcr-Abl1 (A) or the mutant Bcr-Abl1 T315I (B) were cultured overnight in serum free RPMI-1640 media supplemented with 2 mM glutamine, 100 U/mL penicillin and 100 μg/mL streptomycin (Sigma-Aldrich). The following day, cells were plated in a 96-well plate with each well containing 2000 cells in a volume of 100 μl serum free RMPI media. […] The 96 well plates were incubated for 48 hours, and cell viability was measured in a WST-1 assay (Roche). Briefly, 5 μl WST-1 solution was added to each well and the 96-well plate was incubated for another 2 hours. The readout was performed in an ELSA reader at 480 nm. (measure)/620 nm (reference). Subsequent data analysis was performed with Microsoft Excel 2003 and GraphPad Prism 4.0.

Abl(Y253F) = Abl(Y253F) (Homo sapiens, UniProt P00519, Y253F); assay: KinaseProfiler kinase activity assay; assay type: biochemical; set-up: purchased EMD Millipore Corp. (KinaseProfiler service); conditions: ATP at Km
Excerpt: (§2) Detailed assay methodologies can be found in the relevant references cited herein, or in the KinaseProfiler Service Assay Protocols (v54, 2011) available from EMD Millipore (www.emdmillipore.com), or from the KinomeScan website (www.kinomescan.com), as appropriate. (For a more detailed description of KINOMEscan's assay technology, see: Fabian et al. A small molecule-kinase interaction map for clinical kinase inhibitors. Nat. Biotechnol. 23, 329-336 (2005)). A summary is provided below.
(§3) KinaseProfiler™ assays (EMD Millipore Corp. Billerica, Mass., USA) are […] with purified or partially-purified human kinases. Most of the KinaseProfiler™ assays are conducted in 20 mM MOPS, 1 mM EDTA, 0.01% Brij-35, 5% Glycerol, 0.1% b-mercaptoethanol, 1 mg/mL BSA. The assay involves the transfer of ^32P from γ-^32P-ATP to the target peptide, followed by washing and trapping of the labeled peptide on a filter. The concentration of γ-^32P-ATP used was at the established Km for ATP.

Abl(M351T) = Abl(M351T) (Homo sapiens, UniProt P00519, M351T); assay: KinaseProfiler kinase activity assay; assay type: biochemical; set-up: purchased EMD Millipore Corp. (KinaseProfiler service); conditions: ATP at Km
Excerpt: as §2, §3

Abl = Abl (Homo sapiens, UniProt P00519); assay: KinaseProfiler kinase activity assay; assay type: biochemical; conditions: Abl wild-type; ATP at Km
Excerpt: as §2, §3

Ret (V804M) = Ret (V804M) (Homo sapiens, UniProt P07949, V804M); assay: KinaseProfiler kinase activity assay; assay type: biochemical; set-up: purchased EMD Millipore Corp. (KinaseProfiler service); conditions: ATP at Km
Excerpt: as §1

TEK = TEK (Homo sapiens, UniProt Q02763); assay: KinaseProfiler kinase activity assay; assay type: biochemical; set-up: purchased EMD Millipore Corp. (KinaseProfiler service); conditions: ATP at Km
Excerpt: as §1

Flt3 (D835Y) = Flt3 (D835Y) (Homo sapiens, UniProt P36888, D835Y); assay: KinaseProfiler kinase activity assay; assay type: biochemical; set-up: purchased EMD Millipore Corp. (KinaseProfiler service); conditions: ATP at Km
Excerpt: as §1

Yes = Yes (Homo sapiens, UniProt P07947); assay: KinaseProfiler kinase activity assay; assay type: biochemical; set-up: purchased EMD Millipore Corp. (KinaseProfiler service); conditions: ATP at Km
Excerpt: as §1

Flt3 = Flt3 (Homo sapiens, UniProt P36888); assay: KinaseProfiler kinase activity assay; assay type: biochemical; set-up: purchased EMD Millipore Corp. (KinaseProfiler service); conditions: Flt3 wild-type; ATP at Km
Excerpt: as §1

Ret (V804L) = Ret (V804L) (Homo sapiens, UniProt P07949, V804L); assay: KinaseProfiler kinase activity assay; assay type: biochemical; set-up: purchased EMD Millipore Corp. (KinaseProfiler service); conditions: ATP at Km
Excerpt: as §1

Flt1 = Flt1 (Homo sapiens, UniProt P17948); assay: KinaseProfiler kinase activity assay; assay type: biochemical; set-up: purchased EMD Millipore Corp. (KinaseProfiler service); conditions: ATP at Km
Excerpt: as §1

TEK, sequence (Q02763 23-1124): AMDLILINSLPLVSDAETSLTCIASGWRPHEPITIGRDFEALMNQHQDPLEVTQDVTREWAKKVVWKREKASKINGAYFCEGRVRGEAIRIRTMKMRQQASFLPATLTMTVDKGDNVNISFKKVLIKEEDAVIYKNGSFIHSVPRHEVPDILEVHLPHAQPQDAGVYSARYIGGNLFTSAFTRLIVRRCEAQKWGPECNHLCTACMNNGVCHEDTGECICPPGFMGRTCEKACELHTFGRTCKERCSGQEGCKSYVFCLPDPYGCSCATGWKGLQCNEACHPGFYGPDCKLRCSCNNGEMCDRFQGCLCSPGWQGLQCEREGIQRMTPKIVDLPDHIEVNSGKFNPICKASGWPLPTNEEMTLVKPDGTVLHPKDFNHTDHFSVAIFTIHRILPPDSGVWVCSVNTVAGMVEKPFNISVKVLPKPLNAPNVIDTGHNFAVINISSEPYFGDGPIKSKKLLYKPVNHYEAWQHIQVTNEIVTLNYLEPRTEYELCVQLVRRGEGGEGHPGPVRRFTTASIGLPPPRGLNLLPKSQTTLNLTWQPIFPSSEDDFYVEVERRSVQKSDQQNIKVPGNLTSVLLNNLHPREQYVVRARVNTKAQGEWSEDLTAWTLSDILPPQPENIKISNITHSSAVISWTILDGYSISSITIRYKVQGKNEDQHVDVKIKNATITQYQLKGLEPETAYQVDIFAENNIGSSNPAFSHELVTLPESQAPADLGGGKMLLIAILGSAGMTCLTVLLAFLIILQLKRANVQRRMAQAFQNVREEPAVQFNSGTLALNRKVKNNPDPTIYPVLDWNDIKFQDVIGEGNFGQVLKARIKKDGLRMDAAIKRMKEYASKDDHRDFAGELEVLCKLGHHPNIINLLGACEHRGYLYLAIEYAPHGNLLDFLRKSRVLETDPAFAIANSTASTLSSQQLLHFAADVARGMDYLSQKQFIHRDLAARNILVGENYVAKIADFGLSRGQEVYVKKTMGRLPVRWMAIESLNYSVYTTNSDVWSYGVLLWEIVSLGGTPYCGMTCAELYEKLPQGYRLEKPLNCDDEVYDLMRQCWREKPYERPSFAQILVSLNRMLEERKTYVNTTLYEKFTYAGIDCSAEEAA
c-Kit, sequence (P10721 26-976): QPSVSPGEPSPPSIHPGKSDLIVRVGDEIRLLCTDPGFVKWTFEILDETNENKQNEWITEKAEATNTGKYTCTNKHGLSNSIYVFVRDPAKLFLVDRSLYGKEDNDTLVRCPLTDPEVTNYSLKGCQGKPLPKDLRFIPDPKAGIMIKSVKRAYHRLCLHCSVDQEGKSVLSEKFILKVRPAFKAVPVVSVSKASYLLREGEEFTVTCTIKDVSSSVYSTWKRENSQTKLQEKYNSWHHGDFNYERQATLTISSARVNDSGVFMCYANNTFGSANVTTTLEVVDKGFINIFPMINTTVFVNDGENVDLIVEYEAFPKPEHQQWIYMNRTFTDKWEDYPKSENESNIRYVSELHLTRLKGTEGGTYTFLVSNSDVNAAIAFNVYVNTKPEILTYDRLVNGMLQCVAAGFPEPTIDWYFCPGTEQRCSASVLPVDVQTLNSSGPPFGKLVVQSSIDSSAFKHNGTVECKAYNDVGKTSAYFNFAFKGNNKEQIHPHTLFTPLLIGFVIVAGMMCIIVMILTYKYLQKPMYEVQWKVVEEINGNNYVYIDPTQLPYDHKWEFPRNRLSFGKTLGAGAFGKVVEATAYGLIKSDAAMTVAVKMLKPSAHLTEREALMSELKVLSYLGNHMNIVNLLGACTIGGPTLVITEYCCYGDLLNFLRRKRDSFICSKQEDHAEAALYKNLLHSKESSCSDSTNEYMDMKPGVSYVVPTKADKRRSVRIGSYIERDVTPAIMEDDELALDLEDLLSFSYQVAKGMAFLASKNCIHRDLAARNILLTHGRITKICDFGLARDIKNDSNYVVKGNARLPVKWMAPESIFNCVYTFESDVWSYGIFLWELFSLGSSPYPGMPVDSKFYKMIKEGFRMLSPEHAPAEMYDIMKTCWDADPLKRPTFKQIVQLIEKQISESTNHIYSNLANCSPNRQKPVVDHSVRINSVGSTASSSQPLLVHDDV
Ret (V804L), sequence (P07949 29-1114 V804L): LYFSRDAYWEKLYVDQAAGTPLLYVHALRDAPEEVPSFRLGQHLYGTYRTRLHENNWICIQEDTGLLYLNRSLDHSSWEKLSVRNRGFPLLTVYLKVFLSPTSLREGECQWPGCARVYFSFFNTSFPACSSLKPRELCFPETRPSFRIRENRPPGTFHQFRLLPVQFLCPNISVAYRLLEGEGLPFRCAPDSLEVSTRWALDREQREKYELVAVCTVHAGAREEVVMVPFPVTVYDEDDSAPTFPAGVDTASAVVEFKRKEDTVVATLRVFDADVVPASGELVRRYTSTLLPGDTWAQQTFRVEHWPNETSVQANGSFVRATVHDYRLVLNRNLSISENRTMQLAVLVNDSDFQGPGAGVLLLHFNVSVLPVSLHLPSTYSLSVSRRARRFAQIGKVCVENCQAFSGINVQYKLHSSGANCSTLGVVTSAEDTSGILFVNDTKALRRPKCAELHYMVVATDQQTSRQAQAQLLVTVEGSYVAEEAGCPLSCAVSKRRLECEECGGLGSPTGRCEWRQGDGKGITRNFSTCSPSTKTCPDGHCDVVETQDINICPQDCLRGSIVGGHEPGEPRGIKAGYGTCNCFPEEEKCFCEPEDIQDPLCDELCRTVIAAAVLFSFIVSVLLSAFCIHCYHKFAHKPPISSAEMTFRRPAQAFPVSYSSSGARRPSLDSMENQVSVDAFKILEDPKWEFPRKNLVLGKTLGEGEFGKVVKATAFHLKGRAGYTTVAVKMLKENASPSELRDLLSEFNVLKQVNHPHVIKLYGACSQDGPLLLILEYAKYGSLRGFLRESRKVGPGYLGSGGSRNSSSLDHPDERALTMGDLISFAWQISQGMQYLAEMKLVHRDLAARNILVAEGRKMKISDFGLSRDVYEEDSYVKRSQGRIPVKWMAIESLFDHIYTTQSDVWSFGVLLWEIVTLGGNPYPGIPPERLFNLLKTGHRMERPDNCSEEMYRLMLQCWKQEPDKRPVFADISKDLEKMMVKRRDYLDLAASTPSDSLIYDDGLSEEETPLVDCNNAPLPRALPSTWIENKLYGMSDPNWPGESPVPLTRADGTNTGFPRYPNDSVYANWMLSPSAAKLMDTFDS
Yes, sequence (P07947 whole entry): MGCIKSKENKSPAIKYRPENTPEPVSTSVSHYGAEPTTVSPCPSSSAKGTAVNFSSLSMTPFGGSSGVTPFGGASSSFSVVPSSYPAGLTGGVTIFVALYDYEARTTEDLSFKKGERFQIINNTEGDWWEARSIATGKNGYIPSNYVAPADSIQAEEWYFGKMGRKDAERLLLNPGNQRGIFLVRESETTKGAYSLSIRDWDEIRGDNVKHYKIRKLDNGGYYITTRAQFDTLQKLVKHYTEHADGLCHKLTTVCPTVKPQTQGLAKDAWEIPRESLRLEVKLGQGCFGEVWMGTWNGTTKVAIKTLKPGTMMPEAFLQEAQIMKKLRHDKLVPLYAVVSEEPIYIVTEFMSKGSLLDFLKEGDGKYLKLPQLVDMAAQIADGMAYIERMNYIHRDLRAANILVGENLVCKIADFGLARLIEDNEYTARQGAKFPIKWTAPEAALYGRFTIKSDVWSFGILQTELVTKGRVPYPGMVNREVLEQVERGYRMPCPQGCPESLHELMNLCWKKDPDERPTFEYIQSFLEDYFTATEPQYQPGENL
Ret (V804M), sequence (P07949 29-1114 V804M): as the sequence (P07949 29-1114 V804L) above, with L776M counted along it
Flt1, sequence (P17948 27-1338): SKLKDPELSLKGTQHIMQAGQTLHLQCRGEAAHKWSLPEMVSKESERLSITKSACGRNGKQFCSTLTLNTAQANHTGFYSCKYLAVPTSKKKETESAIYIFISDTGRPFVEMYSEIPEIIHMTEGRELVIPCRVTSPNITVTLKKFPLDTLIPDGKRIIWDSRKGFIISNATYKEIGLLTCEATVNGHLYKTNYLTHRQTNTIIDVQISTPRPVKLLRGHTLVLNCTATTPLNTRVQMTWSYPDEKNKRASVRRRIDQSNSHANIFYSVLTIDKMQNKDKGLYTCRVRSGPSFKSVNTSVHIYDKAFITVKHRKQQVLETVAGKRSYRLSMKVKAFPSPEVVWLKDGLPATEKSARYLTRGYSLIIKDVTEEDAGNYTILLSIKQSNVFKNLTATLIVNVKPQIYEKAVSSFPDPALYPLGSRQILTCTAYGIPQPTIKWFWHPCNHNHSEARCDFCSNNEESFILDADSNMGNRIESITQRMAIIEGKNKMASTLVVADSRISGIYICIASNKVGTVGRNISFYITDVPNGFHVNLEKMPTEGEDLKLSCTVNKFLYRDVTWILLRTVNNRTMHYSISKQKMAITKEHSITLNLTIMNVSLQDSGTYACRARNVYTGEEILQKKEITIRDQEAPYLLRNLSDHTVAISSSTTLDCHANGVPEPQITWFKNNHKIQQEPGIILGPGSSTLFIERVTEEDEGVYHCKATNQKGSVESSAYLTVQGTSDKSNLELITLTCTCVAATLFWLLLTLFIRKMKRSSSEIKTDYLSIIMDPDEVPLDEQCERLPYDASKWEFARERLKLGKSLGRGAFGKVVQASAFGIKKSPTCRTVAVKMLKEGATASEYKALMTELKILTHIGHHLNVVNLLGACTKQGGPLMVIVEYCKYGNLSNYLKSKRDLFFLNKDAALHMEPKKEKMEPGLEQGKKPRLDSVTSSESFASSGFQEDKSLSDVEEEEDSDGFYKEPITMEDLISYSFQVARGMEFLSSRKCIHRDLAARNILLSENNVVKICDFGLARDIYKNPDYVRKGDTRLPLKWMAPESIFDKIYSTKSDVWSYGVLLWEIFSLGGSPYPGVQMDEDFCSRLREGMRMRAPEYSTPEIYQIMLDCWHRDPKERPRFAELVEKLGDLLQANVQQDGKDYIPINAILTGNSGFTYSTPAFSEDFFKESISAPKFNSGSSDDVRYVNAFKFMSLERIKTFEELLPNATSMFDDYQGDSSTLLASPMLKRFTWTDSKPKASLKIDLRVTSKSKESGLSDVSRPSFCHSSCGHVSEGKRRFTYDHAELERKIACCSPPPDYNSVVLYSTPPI

In the case of `Nc1nc(Nc2ccc3c(c2)CC[C@@H](N2CCCC2)CC3)nn1-c1cc2c(nn1)-c1ccccc1CCC2` [Compound A, 1-(6,7-dihydro-5H-benzo[6,7]cyclohepta[1,2-c]pyridazine-3-yl)-N^3-(7-(S)-(pyrrolidin-1-yl)-6,7,8,9-tetrahydro-5H-benzo[7]annulene-2-yl)-1H-1,2,4-triazole-3,5-diamine], the “cell death in proliferation assays” value [1] is reported as “all cells are dead”, the “inhibition range, Flt3 mutations” value [2] is reported as 8 to 29 nM and the IC50 (c-Kit) is reported as 1280 nM. The IC50 [3] was 796 nM, the IC50 (Abl(Y253F)) was 26 nM and the IC50 (Abl(M351T)) was 32 nM. For the same compound, the IC50 (Abl) was 51 nM, the IC50 (Ret (V804M)) was 21 nM and the IC50 (TEK) was 30 nM and 41 nM. The IC50 (Flt3 (D835Y)) was 13 nM, the IC50 (Yes) was 43 nM and the IC50 (Flt3) was 122 nM. For the same compound, the IC50 (Ret (V804L)) was 11 nM and the IC50 (Flt1) was 40 nM.
